Patent US12655132B2, “Crystal forms of a pyridazinone TRPC inhibitor” (GFB (ABC), LLC, priority 2019, dated 2026)

Test: Stability of crystalline form E at different relative humidities over 3-14 days
Format: physicochemical
Experimental: Crystalline form E was also tested for stability at different relative humidities over 3-14 days. The results are shown below in Table 3.1

O=c1[nH]ncc(N2CCc3c(ncnc3Oc3ccc(F)cc3C(F)(F)F)C2)c1Cl [Crystalline Form E, 4-chloro-5-(4-(4-fluoro-2-(trifluoromethyl)phenoxy)-5,8-dihydropyrido[3,4-d]pyrimidin-7(6H)-yl)pyridazin-3(2H)-one]
Stability of Crystalline Form E at Different Relative Humidities (RH): crystal type found (30% RH, 3 days): Type E
Stability of Crystalline Form E at Different Relative Humidities (RH): crystal type found (30% RH, 7 days): Type E
Stability of Crystalline Form E at Different Relative Humidities (RH): crystal type found (30% RH, 14 days): Type E + Type F
Stability of Crystalline Form E at Different Relative Humidities (RH): crystal type found (50% RH, 3 days): Type E
Stability of Crystalline Form E at Different Relative Humidities (RH): crystal type found (50% RH, 7 days): Type E
Stability of Crystalline Form E at Different Relative Humidities (RH): crystal type found (50% RH, 14 days): Type E
Stability of Crystalline Form E at Different Relative Humidities (RH): crystal type found (60% RH, 3 days): Type E
Stability of Crystalline Form E at Different Relative Humidities (RH): crystal type found (60% RH, 7 days): Type E
Stability of Crystalline Form E at Different Relative Humidities (RH): crystal type found (60% RH, 14 days): Type E
Stability of Crystalline Form E at Different Relative Humidities (RH): crystal type found (92.5% RH, 3 days): Type E
Stability of Crystalline Form E at Different Relative Humidities (RH): crystal type found (92.5% RH, 7 days): Type E
Stability of Crystalline Form E at Different Relative Humidities (RH): crystal type found (92.5% RH, 14 days): Type E
Stability at low relative humidity (conclusion in words) (storage for 14 days at 30% relative humidity, appearance of Type F): unstable
